Each structure is given as a SMILES string. Entries after “also recorded” stand apart in the source; their conditions may differ. Where two headings read alike, the source gives them in different places. Some results are limits rather than exact numbers.

The test system of experiment [1] is SH-SY5Y cells. The experiment can be described thus: Mitochondrial membrane potential (rhodamine 123), KE2 assay. The format is cell-based, human. The conditions noted are these: for EC25: Homo sapiens; for Ratios of EC25 KE4/KE2 MMP: NeuriTox neurite EC25 relative to SH-SY5Y MMP EC25. The procedure:
Cells were plated at a cell density of 29,500 cells/cm^2 and handled as described above for the neurite SH-SY5Y degeneration. On d6 of differentiation, 50% of the medium was replaced by differentiation medium containing 2 µM Rhodamine 123 (ThermoFisher). After 45 min of preloading at 37 °C with 5% CO2 in darkness, the Rhodamine 123 solution was completely removed and cells were carefully washed once with 200 µl DMEM:F12. Subsequently, 50 µl differentiation medium per well were added followed by the addition of 50 µl/well of test compounds in medium. After 24 h of exposure to the test compounds, the nuclei were stained for 30 min with 20 µL of a solution containing 20 µM Hoechst 33342, and the images were then acquired with a 10 × objective lens using the ImageXpress® Micro (Molecular Devices) high content microplate imager. Nuclei were evaluated in the DAPI channel (excitation 377 ± 50 nm, emission 447 ± 60 nm), whereas Rhodamine 123 fluorescence was detected in the FITC channel (excitation 475 ± 34 nm, emission 536 ± 40 nm). Analysis of the Hoechst 33,342 and Rhodamine 123 fluorescence was performed using the MetaXpress® Software (Molecular Devices) with the Transfluor HT plug-in and the parameters nuclei (for Hoechst-33342) and integrated granule intensity (for Rhodamine 123). Mitochondrial membrane potential (MMP) was quantified as the total fluorescence intensity of Rhodamine 123 in relation to the number of Hoechst-stained nuclei.

For experiment [2], the system named is LUHMES cells. The experiment can be described thus: Mitochondrial respiration of intact LUHMES cells (Seahorse OCR). The class given is cell-based, human. As to conditions: d3 LUHMES, acute treatment, highest non-cytotoxic concentration (cII inhibitors 100 µM). As to the method: Respiration of intact LUHMES cells was performed as described earlier (Delp et al. [2018a], [2019]). Briefly, 48 h differentiated cells were re-seeded into Agilent Seahorse XFe24-well plates in DM without cAMP and GDNF at a density of 100,000 cells/cm^2 and cultured for 24 h before the assay was initiated. Inhibition of respiration was calculated as the difference between baseline measurements (i.e., after equilibration, last measurement before treatment) and the first measurement after treatment with the test compound.

Experiment [3] has as its system SH-SY5Y cells. The class given is cell-based, human. As to conditions: up to 10 µM; for Neurite degeneration: 24 h exposure, without affecting viability; for Neurite degeneration (in words) / Reduction in viability: 120 h exposure. The procedure:
The cells are able to form neurites and display several dopaminergic characteristics. […] Differentiation was initiated 24 h later (on day 0, d0) by exchange to 100 µl/well differentiation medium (DMEM:F12, supplemented with 1 µM all-trans retinoic acid (RA), 1 × N2 supplement, 2 mM L-glutamine, 100 µg/ml streptomycin, and 100 U/ml penicillin). All media and supplements were obtained from Gibco (ThermoFisher) except from RA (Sigma).
On d3, 100 µl of fresh differentiation medium were added to the wells. For the 120 h exposure, this medium contained twice the final treatment concentration. On d6, 100 µl from each well were removed, and the procedure was repeated and the cells were analyzed on d8. For the 24 h exposure, cells received an addition of 100 µl pure differentiation medium on d3 and were treated with compounds as described above on d6 for 24 h before analysis. […] The cells were incubated with the stain mixture for 20 min at 37 °C, 5% CO2. After incubation, 130 µL of differentiation medium were added to all the wells to stop further staining of the cells. Images were obtained using ImageXpress® Micro (Molecular Devices). […] The mean neurite length was calculated using the Neurite Outgrowth plug-in in the MetaXpress® Software. Outgrowths were defined as cytoplasmic prolongations with a maximum width of 2 µm (3 pixels). The minimum outgrowth size needed to be logged as significant was defined as 15 µm (23 pixels).

In a further experiment the target is T1, cI (Homo sapiens, UniProt O75251+O75306+P03886).
T1 construct: endogenous in cells; host or cells: LUHMES cells, digitonin-permeabilized
The format is cell-based. The conditions noted are these: permeabilized LUHMES; capsaicin 50 µM, mepronil 100 µM. The procedure:
(§1) To investigate individual respiratory chain complexes, a method developed earlier and described extensively was used (Delp et al. [2019]). In brief, LUHMES cells were seeded at a density of 205,000 cells/cm^2 in PM into Agilent Seahorse XFe24-well plates. […] To reduce data variability, internal normalization of the OCR of each well was done relative to its value after equilibration.

Another experiment deals with T2, cII (Homo sapiens, UniProt O14521+P21912+Q99643).
T2 construct: endogenous in cells; host or cells: LUHMES cells, digitonin-permeabilized
The experiment can be described thus: Respiratory chain complex activity in permeabilized LUHMES cells: cII. The class given is cell-based. The conditions noted are these: mepronil at 100 µM. The procedure: as §1

For experiment [4], the system named is LUHMES cells. The experiment can be described thus: LUHMES 120 h exposure scenario, neurite effects. The format is cell-based, human. As to the method: The NeuriTox test was performed as previously described (Delp et al. [2018b]; Krug et al. [2013a]; Stiegler et al. [2011]). Briefly, cells differentiated for 48 h were re-seeded into 96-well plates at a density of 100,000 cells/cm^2 in DM without cAMP and GDNF, and treated 1 h after seeding for 24 h. Subsequently, multiple endpoints were determined, e.g., neurite outgrowth (i.e., NeuriTox test), resazurin reduction, intracellular ATP content, gene expression levels from TempO-Seq analysis, and proteasomal activity. For the 120 h exposure scenario, LUHMES cells were differentiated for another 3 days after reseeding before they were treated on day 5 (d5) and d7 by a half medium exchange. Endpoints were determined on d10 of differentiation.
Image acquisition and analysis was performed as described previously (Krug et al. [2013a]; Schildknecht et al. [2013]; Stiegler et al. [2011]). In brief, cells were live-stained with 1 µg/ml Hoechst H-33342 and 1 µM calcein-AM and image acquisition was done by an automated high content imager (Cellomics, Waltham, MA, USA). Cell viability was determined as ratio of live cells (cell bodies being Calcein- and Hoechst-positive) relative to the total amount of cells (Hoechst-positive cell bodies). Neurite area was calculated by subtracting the somatic area (Hoechst-positive area plus surrounding) from the calcein-positive area.

The target in the next experiment is T3, cIII (Homo sapiens, UniProt P00156).
T3 construct: endogenous in cells; host or cells: LUHMES cells, digitonin-permeabilized
The experiment can be described thus: Respiratory chain complex activity in permeabilized LUHMES cells: cIII. The class given is cell-based. The procedure:
as §1

Another experiment relates to HepG2 cells. On the set-up: method as in van der Stel et al. 2020. As to conditions: ref van der Stel et al. 2020; cited from earlier work.
Setting [5] is: SH-SY5Y differentiated 6 days, treated 24 h, rhodamine-123, read-out: pEC25 MMP (concentration where MMP was reduced by 25%) (converted).

T2 sequence (P21912 29-280): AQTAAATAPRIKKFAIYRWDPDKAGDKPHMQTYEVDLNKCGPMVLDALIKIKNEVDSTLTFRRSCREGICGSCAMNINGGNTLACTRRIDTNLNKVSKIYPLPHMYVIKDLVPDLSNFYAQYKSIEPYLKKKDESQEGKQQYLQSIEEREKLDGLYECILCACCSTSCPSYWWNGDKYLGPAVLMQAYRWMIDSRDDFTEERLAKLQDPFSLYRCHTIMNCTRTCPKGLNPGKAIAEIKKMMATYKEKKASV
T2 sequence (Q99643 30-169): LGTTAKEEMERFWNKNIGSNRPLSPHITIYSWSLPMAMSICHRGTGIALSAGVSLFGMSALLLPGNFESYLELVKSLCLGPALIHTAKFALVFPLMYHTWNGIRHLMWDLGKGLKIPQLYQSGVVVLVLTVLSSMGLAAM
T2 sequence (O14521 57-159): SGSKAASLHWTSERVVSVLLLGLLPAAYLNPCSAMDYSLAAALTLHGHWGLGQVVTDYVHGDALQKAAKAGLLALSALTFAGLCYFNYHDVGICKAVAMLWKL
T2 sequence (P31040 43-664 partner): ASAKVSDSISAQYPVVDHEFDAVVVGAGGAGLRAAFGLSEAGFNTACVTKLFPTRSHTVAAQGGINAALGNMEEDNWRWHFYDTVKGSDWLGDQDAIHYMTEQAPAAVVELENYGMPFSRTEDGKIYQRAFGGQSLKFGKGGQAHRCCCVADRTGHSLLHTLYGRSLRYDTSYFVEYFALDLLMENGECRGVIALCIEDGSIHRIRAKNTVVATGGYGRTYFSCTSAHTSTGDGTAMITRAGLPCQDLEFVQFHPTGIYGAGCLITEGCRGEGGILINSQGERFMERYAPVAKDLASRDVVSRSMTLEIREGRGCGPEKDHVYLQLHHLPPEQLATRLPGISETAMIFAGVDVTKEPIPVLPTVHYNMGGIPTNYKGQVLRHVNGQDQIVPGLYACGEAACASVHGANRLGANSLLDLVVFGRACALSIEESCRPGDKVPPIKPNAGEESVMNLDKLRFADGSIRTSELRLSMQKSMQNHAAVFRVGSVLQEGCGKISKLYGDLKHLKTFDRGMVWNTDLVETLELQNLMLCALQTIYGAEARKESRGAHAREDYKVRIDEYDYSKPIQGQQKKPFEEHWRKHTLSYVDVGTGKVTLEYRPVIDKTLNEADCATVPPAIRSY
T1 sequence (O75306 34-463): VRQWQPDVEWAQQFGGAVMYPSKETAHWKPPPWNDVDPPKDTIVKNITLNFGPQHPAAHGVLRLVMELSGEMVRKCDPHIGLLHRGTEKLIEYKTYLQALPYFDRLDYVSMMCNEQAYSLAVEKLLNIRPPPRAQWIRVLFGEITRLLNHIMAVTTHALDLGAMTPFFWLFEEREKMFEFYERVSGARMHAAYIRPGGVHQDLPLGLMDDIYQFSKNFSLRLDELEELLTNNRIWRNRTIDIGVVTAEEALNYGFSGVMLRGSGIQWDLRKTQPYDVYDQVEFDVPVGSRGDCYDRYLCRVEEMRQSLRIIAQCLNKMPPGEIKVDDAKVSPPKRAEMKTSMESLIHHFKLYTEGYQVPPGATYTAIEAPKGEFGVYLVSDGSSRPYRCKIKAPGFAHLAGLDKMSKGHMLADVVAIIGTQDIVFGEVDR
T1 sequence (P03886 whole entry): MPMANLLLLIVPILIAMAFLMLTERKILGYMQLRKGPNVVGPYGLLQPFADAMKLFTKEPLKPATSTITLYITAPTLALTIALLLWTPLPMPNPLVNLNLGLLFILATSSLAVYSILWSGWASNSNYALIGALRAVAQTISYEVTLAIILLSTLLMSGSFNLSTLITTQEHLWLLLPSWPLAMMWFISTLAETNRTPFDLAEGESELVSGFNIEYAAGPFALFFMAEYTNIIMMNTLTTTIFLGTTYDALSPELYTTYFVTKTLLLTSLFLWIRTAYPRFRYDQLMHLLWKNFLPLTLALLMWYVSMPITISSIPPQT
T1 sequence (O75251 39-213): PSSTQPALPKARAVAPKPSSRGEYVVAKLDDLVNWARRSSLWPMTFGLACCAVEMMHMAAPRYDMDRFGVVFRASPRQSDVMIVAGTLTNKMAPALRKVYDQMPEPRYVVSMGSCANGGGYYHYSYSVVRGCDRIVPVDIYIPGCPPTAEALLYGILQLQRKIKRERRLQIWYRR

For the compound `CCCCCC[C@H]1C(=O)O[C@H](C)[C@H](NC(=O)c2cccc(NC=O)c2O)C(=O)O[C@@H](C)[C@@H]1OC(=O)CC(C)C` [Antimycin A], the EC25 with SH-SY5Y cells [1] (setting [5]) was 63.1 nM. The “Ratios of EC25 KE4/KE2 MMP” value with SH-SY5Y cells [1] came out at 257. The “Inhibition of total mitochondrial respiration of intact cells” value (“Inhibition … of intact cells” for short) in the experiment with LUHMES cells [2] is reported as “strong inhibitory effects”. For the same compound, in the experiment with SH-SY5Y cells [3], the Neurite degeneration is listed as greater than 25%, the “Neurite degeneration (in words)” value is given as “degeneration of neurites” and the Reduction in viability is given as greater than 25%.

`COc1cc(CNC(=O)CCCC/C=C/C(C)C)ccc1O` [Capsaicin]: the EC25 in the experiment on SH-SY5Y cells [1] (setting [5]) was greater than 10000 nM. For the same compound, at cI, the “Inhibition of cI activity (in words)” value was “no significant response”. In addition, the “Inhibition … of intact cells” value in the experiment on LUHMES cells [2] is reported as “weak response”.

With `CC1=C(C(=O)Nc2ccccc2)SCCO1` [Carboxin], in the experiment on SH-SY5Y cells [1] (setting [5]), the EC25 was 1580 nM. Also, the “Ratios of EC25 KE4/KE2 MMP” value in the experiment on SH-SY5Y cells [1] was 48. Moreover, the “Decrease of the MMP reached” value in the experiment with SH-SY5Y cells [1] (SH-SY5Y, 24 h, non-cytotoxic concentrations) was “at least 50%”. Besides, the “Inhibition of cII activity (in words)” value on cII is “strong inhibition of cII”.

Turning to `Cc1ccc(-c2c(Cl)nc(C#N)n2S(=O)(=O)N(C)C)cc1` [Cyazofamid], the “Increase in sensitivity of neurite EC25, 120 h versus 24 h exposure” value (shortened to “Increase in sensitivity of neurite EC25”) in the experiment with LUHMES cells [4] is “five-to-eightfold”. In addition, the EC25 with SH-SY5Y cells [1] (setting [5]) is 200 nM. In the experiment on SH-SY5Y cells [1], the “Ratios of EC25 KE4/KE2 MMP” value is on record as 225. Moreover, the “Inhibition of cIII activity (in words)” value on cIII (cIII electron donor) is on record as “not active at all”. On cIII (neuronal mitochondria, 50 µM), the Uncoupling action result was “uncoupling action”. Besides, the “Inhibition … of intact cells” value in the experiment with LUHMES cells [2] is “inactive”. For the same compound, in the experiment with SH-SY5Y cells [3], the Neurite degeneration is on record as greater than 25%, the “Neurite degeneration (in words)” value is reported as “degeneration of neurites; also recorded: increased neurite degeneration” and the Reduction in viability is recorded as greater than 25%. Also, the “Mode of action found in HepG2 cells” value in the experiment with HepG2 cells is “uncoupler”.

As for `COc1cc2c(cc1OC)[C@@H]1C(=O)c3ccc4c(c3O[C@@H]1CO2)C=CC(C)(C)O4` [Deguelin], in the experiment with LUHMES cells [4], the “Increase in sensitivity of neurite EC25” value is “five-to-eightfold”. Also, in the experiment with SH-SY5Y cells [1] (setting [5]), the EC25 was 316 nM. Further, the “Ratios of EC25 KE4/KE2 MMP” value in the experiment with SH-SY5Y cells [1] came to 13. For the same compound, in the experiment with SH-SY5Y cells [3], the Neurite degeneration result is recorded as “no effects”, the “Neurite degeneration (in words)” value was “degeneration of neurites; also recorded: increased neurite degeneration” and the Reduction in viability is greater than 25%.

As for `Cc1ccccc1C(=O)Nc1cccc(OC(C)C)c1` [Mepronil], the EC25 with SH-SY5Y cells [1] (setting [5]) was 5010 nM. Further, the “Inhibition of cI activity (in words)” value at cI was “weakly affected cI”. The “Inhibition of cII activity (in words)” value on cII was “significant, but weak inhibitor”.

For the compound `COC(=O)N(OC)c1ccccc1COc1ccn(-c2ccc(Cl)cc2)n1` [Pyraclostrobin], the “Increase in sensitivity of neurite EC25” value in the experiment with LUHMES cells [4] is “five-to-eightfold”. For the same compound, the EC25 in the experiment on SH-SY5Y cells [1] (setting [5]) was 316 nM. Moreover, in the experiment on SH-SY5Y cells [1], the “Ratios of EC25 KE4/KE2 MMP” value is on record as 85.

With `CCOCCc1ccc(OCCN=c2[nH]cnc(CC)c2Cl)c(C)c1C` [Pyrimidifen], the “Increase in sensitivity of neurite EC25” value with LUHMES cells [4] worked out at 9.8 fold. For the same compound, the EC25 with SH-SY5Y cells [1] (setting [5]) is 794 nM. Besides, the “Ratios of EC25 KE4/KE2 MMP” value in the experiment with SH-SY5Y cells [1] is given as 21.

With `C=C(C)[C@H]1Cc2c(ccc3c2O[C@@H]2COc4cc(OC)c(OC)cc4[C@@H]2C3=O)O1` [Rotenone], in the experiment on SH-SY5Y cells [1] (SH-SY5Y, 24 h, read-out: pEC25 MMP (concentration where MMP was reduced by 25%)), the EC25 is 39.8 nM. In the experiment with SH-SY5Y cells [1], the “Ratios of EC25 KE4/KE2 MMP” value came out at 2.1. Besides, in the experiment on SH-SY5Y cells [3], the Neurite degeneration is greater than 25%, the “Neurite degeneration (in words)” value is on record as “degeneration of neurites” and the Reduction in viability is on record as greater than 25%.

Regarding `Cc1nc(C(F)(F)F)c(C(=O)Nc2c(Br)cc(OC(F)(F)F)cc2Br)s1` [Thifluzamide], in the experiment with LUHMES cells [4], the “Increase in sensitivity of neurite EC25” value is on record as “five-to-eightfold”. For the same compound, the EC25 in the experiment with SH-SY5Y cells [1] (setting [5]) is greater than 10000 nM. The “Inhibition of cII activity (in words)” value on cII was “strong inhibition of cII”.

Values taken from paper PMC7870626, “Neurotoxicity and underlying cellular changes of 21 mitochondrial respiratory chain inhibitors” (Archives of Toxicology, 2021).
